Values joined by “and” are separate entries in the source; they are usually repeats but may differ in a detail not shown here. Identical values can stand only once. Like-named read-outs stand apart in the source and are kept apart here.
Experiments:
[1] = target: T1, recombinant human AChE (Homo sapiens, UniProt P22303); assay: Inhibition of AChE (modified Ellman method, Hunter–Downs evaluation); format: biochemical; settings: for AChE type of inhibition (in words): according to Hunter–Downs plot; for fold higher AChE inhibition potency than meta position counterpart: para compounds 5 and 3 vs meta compounds 4 and 2; for times less potent as inhibitor of AChE than donepezil: compared to donepezil Ki of ref 50; for times less potent as inhibitor of AChE than galantamine: compared to galantamine Ki of ref 50; on AChE Ki: ATCh 0.05–0.50 mM
T1 construct: gift of Dr Florian Nachon (IRBA, Brétigny-sur-Orge, France)
Description: All measurements of cholinesterase activity were performed in 0.1 M sodium phosphate buffer (pH 7.4). Acetylthiocholine (ATCh), used as a substrate, and thiol reagent 5,5′-dithiobis (2-nitrobenzoic acid) (DTNB) were purchased from Sigma–Aldrich, St. Louis, MO, USA. ATCh was dissolved in water and DTNB in sodium phosphate buffer. Stock solutions of compounds were prepared in DMSO (Gram-mol, Zagreb, Croatia), and all further dilutions were carried out in water. As the source of AChE and BChE, purified native human BChE and recombinant human AChE, both kindly provided by Dr Florian Nachon (Département de Toxicologie, Armed Forces Biomedical Research Institute (IRBA), Brétigny-sur-Orge, France), were used. Both enzymes were diluted in a phosphate buffer containing 0.1% BSA, while further dilutions were in a phosphate buffer with 0.01% BSA.
Enzyme activity measurements were carried out spectrophotometrically using a slightly modified Ellman method, as previously described. […] At least three inhibitor concentrations were used at each substrate concentration in at least three experiments. To calculate the enzyme inhibitor dissociation constants (Ki), the Hunter–Downs equation and the linear regression analysis were used:Ki,app = (vi∙i)/(v0 − vi) = Ki + Ki/KS s where Ki,app stands for the apparent inhibition constant and KS for the enzyme–substrate dissociation constant.
The final content of DMSO in measurements was up to 0.4%, and inhibitory reactions containing more than 0.1% of DMSO were corrected for control reactions containing a corresponding concentration of DMSO. No side interactions of the tested compounds with ATCh or DTNB were detected. Measurements were performed at 25 °C and wavelength λ = 412 nm on a Tecan Infinite M200Pro (Tecan Austria GmbH, Salzburg, Austria), and for all calculations, the statistical package GraphPadPrism 8 (Graph Pad Inc., San Diego, CA, USA) was used.
The selectivity index (SI) was determined using the following ratio: SI = Ki(AChE)/Ki(BChE).

[2] = target: T2, purified native human BChE (Homo sapiens, UniProt P06276); assay: biochemical; format: biochemical; settings: for SI = Ki(AChE)/Ki(BChE): selectivity index
T2 construct: purified native human BChE; tissue gift of Dr Florian Nachon (IRBA, Brétigny-sur-Orge, France)

[3] = ORAC assay (peroxyl radical antioxidant activity); settings: benzoquinone 50 µM
Description: For the determination of antioxidant capacity by ORAC method, the commercially available OxiSelect™ Oxygen Radical Antioxidant Capacity (ORAC) Activity Assay kit was used (cat. no. STA-345, Cell Biolabs, Inc., San Diego, CA, USA).
The ability of benzoquinones to prevent excessive oxidation caused by ROS was tested using the commercially available OxiSelect™ Oxygen Radical Antioxidant Capacity (ORAC) Activity Assay kit (cat. no. STA-345, Cell Biolabs, Inc., San Diego, CA, USA), following the manufacturer’s protocol with slight adjustments concerning the antioxidant standard final concentrations. Stock solutions of benzoquinones were prepared in DMSO while 5 mM Trolox (used as an antioxidant standard) was provided by the manufacturer as a solution, and their further dilutions were carried out in 50% v/v acetone. Benzoquinones (50 µM) and Trolox (2.5–50 µM) were incubated with 1x Fluorescein Solution in 96-well black microplates at 37 °C for 30 min. After incubation time, Free Radical Initiator Solution was added. The sample reading was performed at 37 °C with an excitation wavelength of 480 nm and an emission wavelength of 520 nm. […] Net AUC values were compared to a Trolox standard curve and antioxidant capacity was presented as Trolox equivalent (TE) concentrations. All readouts were recorded on a plate reader (SpectraMax iD3, Molecular Devices, LLC, San Jose, CA, USA). Calculations were performed using the statistical package GraphPadPrism 8 (Graph Pad Inc, San Diego, CA, USA).
The ORAC assay was used to evaluate the ability of 1,4-benzoquinone derivatives to prevent oxidative damage caused by generation of ROS. In this assay, the quenching of the fluorescent probe (fluorescein) over time by the peroxyl radicals generated by the Free Radical Initiator Solution was monitored. Since the antioxidant capacity of benzoquinones correlates with the fluorescence decay, the peroxyl radical antioxidant activity of the selected compounds was determined by comparing the antioxidant standard curve of Trolox and was expressed as TE (Trolox equivalents)/µM [58].

[4] = FRAP assay (ferric-reducing antioxidant power); settings: 50 and 100 μM
From the text: All chemicals for FRAP antioxidant activity measurements were purchased from Sigma Aldrich (St. Louis, MO, USA), except for FeCl3 and tripyridyltriazine (TPTZ), which were purchased from Kemika, Zagreb, Croatia, and Fluka, Buchs, Switzerland, respectively.
A ferric-reducing antioxidant power (FRAP) assay was used to determine the antioxidant capacity of tested benzoquinones, following a slightly modified protocol by Benzie and Strain [41, 42]. The water-soluble derivative of vitamin E (Trolox) and butylated hydroxytoluene (BHT) were used as standard antioxidants. […] All absorbance readouts were recorded at 593 nm against a blank and corrected for the value of absorbance of corresponding benzoquinone alone. All measurements were performed in three independent experiments. FRAP values were calculated using a standard curve for FeSO4 × 7H2O. All readouts were recorded on a plate reader (SpectraMax iD3, Molecular Devices, LLC, San Jose, CA, USA).

[5] = set-up: method as in doi:10.2298/JSC220304044D; settings: previous study ref 56; cited from earlier work
[6] = target: T3, human recombinant β-secretase (BACE1) (Homo sapiens, UniProt P56817); assay: Inhibition of BACE1 (spectrofluorimetric method); format: biochemical; settings: 50 μM compound; three independent measurements ± SD
T3 construct: purchased Sigma Aldrich, St. Louis, MO, USA S4195
Description: For the determination of BACE1 activity, a human recombinant β-secretase (BACE1) (cat. no. S4195, Sigma Aldrich, St. Louis, MO, USA) as the source of the enzyme and 7-Methoxycoumarin-4-acetyl-[Asn670, Leu671]-Amyloid β/A4 Precursor Protein 770 Fragment 667–676(2,4-dinitrophenyl)Lys-Arg-Arg amide (cat. no. A1472, Sigma Aldrich, St. Louis, MO, USA) as the substrate were used. All measurements were conducted in 50 mM sodium acetate buffer (pH 4.5) with 0.005% Triton X-100. Commercially available β-secretase Inhibitor III (cat. no. 565780, EMD Millipore Corp., Billerica, MA, USA) was used as positive control.
BACE1 activity was determined using a slightly modified spectrofluorimetric method, as described in our previous work. Stock solutions of tested compounds were prepared in DMSO, and further dilutions were carried out in 50 mM sodium acetate buffer (pH 4.5) containing 0.005% Triton X-100. […] To eliminate any potential influence of benzoquinone and/or buffer on the intensity of fluorescence signal, non-enzymatic (buffer, substrate, and benzoquinones) and blank reactions (buffer and substrate only) were also measured and subtracted from inhibition and control reaction, respectively. As a positive control of BACE1 inhibition, commercially available β-secretase Inhibitor III (EMD Millipore Corp., Billerica, MA, USA) was used (5 µM), which inhibited over 90% of BACE1 activity, corresponding to the manufacturer’s data. All fluorescence signal readouts were recorded at room temperature (25 °C) at zero and two hours after incubation at 37 °C, on a plate reader (SpectraMax iD3, Molecular Devices, LLC, San Jose, CA, USA) with excitation at 320 nm and emission at 405 nm.

[7] = 400 μM compound (maximum concentration used), 0.1 mM ATCh

T3 sequence (P56817 46-501): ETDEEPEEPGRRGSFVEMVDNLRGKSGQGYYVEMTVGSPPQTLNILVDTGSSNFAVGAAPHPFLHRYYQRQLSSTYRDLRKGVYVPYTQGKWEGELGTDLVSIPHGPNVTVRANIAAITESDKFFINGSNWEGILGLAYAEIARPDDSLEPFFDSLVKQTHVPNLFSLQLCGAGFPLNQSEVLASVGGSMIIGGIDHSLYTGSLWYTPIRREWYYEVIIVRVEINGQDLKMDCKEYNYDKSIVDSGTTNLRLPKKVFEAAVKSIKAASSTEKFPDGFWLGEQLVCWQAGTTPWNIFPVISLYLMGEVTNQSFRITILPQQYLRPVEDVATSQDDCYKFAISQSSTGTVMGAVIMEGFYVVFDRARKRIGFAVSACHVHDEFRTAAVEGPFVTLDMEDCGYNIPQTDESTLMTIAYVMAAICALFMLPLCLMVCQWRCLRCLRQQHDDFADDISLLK
T2 sequence (P06276 29-602): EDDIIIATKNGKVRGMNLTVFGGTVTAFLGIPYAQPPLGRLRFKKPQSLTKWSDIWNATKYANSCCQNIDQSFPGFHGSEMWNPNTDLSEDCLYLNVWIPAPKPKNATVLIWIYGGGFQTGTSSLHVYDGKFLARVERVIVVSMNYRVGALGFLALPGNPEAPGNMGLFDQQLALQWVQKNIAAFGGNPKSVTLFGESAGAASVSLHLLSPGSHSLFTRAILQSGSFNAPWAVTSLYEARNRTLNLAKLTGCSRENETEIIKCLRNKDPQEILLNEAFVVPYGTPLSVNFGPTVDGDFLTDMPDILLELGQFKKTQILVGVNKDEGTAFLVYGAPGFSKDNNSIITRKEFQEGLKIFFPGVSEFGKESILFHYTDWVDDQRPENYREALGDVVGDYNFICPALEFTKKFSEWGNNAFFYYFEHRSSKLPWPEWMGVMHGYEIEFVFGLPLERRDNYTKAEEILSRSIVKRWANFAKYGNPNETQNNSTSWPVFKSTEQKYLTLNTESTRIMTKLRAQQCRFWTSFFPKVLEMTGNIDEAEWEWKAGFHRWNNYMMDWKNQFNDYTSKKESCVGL
T1 sequence (P22303 32-614): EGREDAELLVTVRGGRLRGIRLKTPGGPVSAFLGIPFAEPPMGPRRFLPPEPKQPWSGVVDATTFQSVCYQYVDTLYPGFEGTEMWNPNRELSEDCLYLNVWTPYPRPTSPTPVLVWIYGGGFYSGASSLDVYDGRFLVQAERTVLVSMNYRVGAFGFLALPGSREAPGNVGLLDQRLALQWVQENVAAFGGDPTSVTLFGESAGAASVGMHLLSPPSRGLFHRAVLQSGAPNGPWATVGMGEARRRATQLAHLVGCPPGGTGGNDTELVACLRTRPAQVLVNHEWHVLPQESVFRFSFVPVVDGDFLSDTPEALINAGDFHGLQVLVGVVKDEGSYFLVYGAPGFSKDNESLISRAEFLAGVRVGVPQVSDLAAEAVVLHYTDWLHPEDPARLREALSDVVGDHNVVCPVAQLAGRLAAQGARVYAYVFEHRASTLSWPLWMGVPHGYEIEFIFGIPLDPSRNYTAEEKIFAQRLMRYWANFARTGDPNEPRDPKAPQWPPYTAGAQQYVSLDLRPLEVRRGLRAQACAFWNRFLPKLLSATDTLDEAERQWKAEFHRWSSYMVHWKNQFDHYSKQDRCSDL

SMILES: CC(C)(C)C1=CC(=O)C=CC1=O [Compound 1, tert-butyl-1,4-benzoquinone]
- Ki [1]: 52 ± 6 µM
- Ki [2]: 55 ± 5 µM
- SI = Ki(AChE)/Ki(BChE) [2]: 0.95
- ORAC value, TE (Trolox equivalents) [3]: 16.7 ± 0.1 µM
- FRAP antioxidant activity compared to standard antioxidants Trolox and BHT [4]: approximately three times less potent than BHT
- DPPH antioxidant activity relative to ascorbic acid [5]: approximately twice as potent as ascorbic acid

SMILES: CC(C)(C)C1=CC(=O)C=C(SCCO)C1=O [Compound 2]
- AChE type of inhibition (in words) [1]: mixed
- Ki ([1]; read-out: AChE Ki): 80 ± 7 µM
- Ki ([2]; read-out: BChE Ki): 33 ± 1 µM
- SI = Ki(AChE)/Ki(BChE) [2]: 2.4

SMILES: CC(C)(C)C1=CC(=O)C(SCCO)=CC1=O [Compound 3]
- fold higher AChE inhibition potency than meta position counterpart [1]: approximately 1.7
- Ki ([1]; read-out: AChE Ki): 57 ± 4 µM
- Ki ([2]; read-out: BChE Ki): 8.8 ± 0.8 µM
- SI = Ki(AChE)/Ki(BChE) [2]: 6.5
- ORAC value, TE (Trolox equivalents) [3]: 23.9 ± 1.6 µM
- inhibition at 50 µM [6]: 5.7%

SMILES: CC(C)(C)C1=CC(=O)C=C(SC2CCCC2)C1=O [Compound 4]
- Ki ([1]; read-out: AChE Ki): 56 ± 8 µM
- Ki ([2]; read-out: BChE Ki): 30 ± 6 µM
- SI = Ki(AChE)/Ki(BChE) [2]: 1.9

SMILES: CC(C)(C)C1=CC(=O)C(SC2CCCC2)=CC1=O [Compound 5]
- AChE type of inhibition (in words) [1]: competitive
- times less potent as inhibitor of AChE than donepezil [1]: ~1166
- times less potent as inhibitor of AChE than galantamine [1]: about 54
- fold higher AChE inhibition potency than meta position counterpart [1]: approximately 1.7
- Ki ([1]; read-out: AChE Ki): 29 ± 5 µM
- Ki ([2]; read-out: BChE Ki): 5.2 ± 0.7 µM
- SI = Ki(AChE)/Ki(BChE) [2]: 5.6
- ORAC value, TE (Trolox equivalents) [3]: 11.0 ± 0.3 µM
- inhibition at 50 µM [6]: 11 ± 2%

SMILES: CC(C)(C)C1=CC(=O)C=C(Sc2ccccc2)C1=O [Compound 6]
- Ki ([1]; read-out: AChE Ki): 136 ± 13 µM
- Ki ([2]; read-out: BChE Ki): 18 ± 4 µM
- SI = Ki(AChE)/Ki(BChE) [2]: 7.6
- DPPH antioxidant activity relative to ascorbic acid [5]: approximately twice as potent as ascorbic acid

SMILES: CC(C)(C)C1=CC(=O)C=C(Sc2ccc(O)cc2)C1=O [Compound 7]
- Ki ([1]; read-out: AChE Ki): 37 ± 4 µM
- Ki ([2]; read-out: BChE Ki): 23 ± 2 µM
- SI = Ki(AChE)/Ki(BChE) [2]: 1.6
- ORAC value, TE (Trolox equivalents) [3]: ≥50 µM
- inhibition at 50 µM [6]: 16.7 ± 2.8%

SMILES: COc1ccc(SC2=CC(=O)C=C(C(C)(C)C)C2=O)cc1 [Compound 8]
- Ki ([1]; read-out: AChE Ki): 85 ± 5 µM
- Ki ([2]; read-out: BChE Ki): 29 ± 3 µM
- SI = Ki(AChE)/Ki(BChE) [2]: 2.9
- ORAC value, TE (Trolox equivalents) [3]: 3.6 ± 0.6 µM

SMILES: CC(C)(C)C1=CC(=O)C=C(SCCc2ccccc2)C1=O [Compound 9]
- AChE type of inhibition (in words) [1]: non-competitive
- times less potent as inhibitor of AChE than donepezil [1]: ~1166
- times less potent as inhibitor of AChE than galantamine [1]: about 54
- Ki ([1]; read-out: AChE Ki): 24 ± 1 µM
- Ki ([2]; read-out: BChE Ki): 25 ± 3 µM
- SI = Ki(AChE)/Ki(BChE) [2]: 0.96
- ORAC value, TE (Trolox equivalents) [3]: 5.2 ± 0.0 µM
- inhibition at 50 µM [6]: 27.4%

SMILES: CC(C)(C)C1=CC(=O)C=C(Sc2ccc3ccccc3c2)C1=O [Compound 10]
- AChE type of inhibition (in words) [1]: mixed-type
- Ki ([1]; read-out: AChE Ki): 30 ± 3 µM
- Ki ([2]; read-out: BChE Ki): 37 ± 5 µM
- SI = Ki(AChE)/Ki(BChE) [2]: 0.81
- ORAC value, TE (Trolox equivalents) [3]: 9.3 ± 0.5 µM
- inhibition at 50 µM [6]: 26.2%

SMILES: CC(C)(C)C1=CC(=O)C2=C(SCCS2)C1=O [Compound 11]
- DPPH antioxidant activity relative to ascorbic acid [5]: approximately twice as potent as ascorbic acid

SMILES: CNC1=CC(=O)C(C(C)(C)C)=CC1=O [Compound 12]
- AChE inhibition ([1]; any of the tested concentrations): did not inhibit AChE
- Ki ([2]; read-out: BChE Ki): 228 ± 56 µM

SMILES: CNC1=CC(=O)C=C(C(C)(C)C)C1=O [Compound 13]
- AChE inhibitory activity [1, 7]: did not show any inhibitory activity
- BChE inhibitory activity [2, 7]: did not show any inhibitory activity

SMILES: CC(C)(C)C1=CC(=O)C(N2CCC[C@H]2C(=O)O)=CC1=O [Compound 14]
- times less potent as inhibitor of AChE than donepezil [1]: ~1166
- times less potent as inhibitor of AChE than galantamine [1]: about 54
- Ki ([1]; read-out: AChE Ki): 21 ± 1 µM
- Ki ([2]; read-out: BChE Ki): 36 ± 2 µM
- SI = Ki(AChE)/Ki(BChE) [2]: 0.58
- ORAC value, TE (Trolox equivalents) [3]: 19.7 ± 1.6 µM
- inhibition at 50 µM [6]: 10.1 ± 2%

SMILES: CC(C)(C)C1=CC(=O)C=C(N[C@@H](Cc2ccccc2)C(=O)O)C1=O [Compound 15]
- Ki ([1]; read-out: AChE Ki): 59 ± 5 µM
- Ki ([2]; read-out: BChE Ki): 34 ± 2 µM
- SI = Ki(AChE)/Ki(BChE) [2]: 1.7
- ORAC value, TE (Trolox equivalents) [3]: 43.2 µM and 43.2 ± 1.6 µM
- inhibition at 50 µM [6]: 15 ± 3.8%

Reference: paper PMC12384008, “Assessment of Biological Activity of Low Molecular Weight 1,4-Benzoquinone Derivatives” (Biomolecules, 2025)
